{
  "source": "patent US20020091086A1",
  "about": "“Peptides that block viral infectivity and methods of use thereof” (priority 1999, published 2002)",
  "key": {"HIV-1 strain HTLV-IIIB": {"system": "HIV-1 strain HTLV-IIIB", "conditions": "passaged in serial dilutions for more than six months"}, "[1]": {"assay": "in vivo uptake, distribution and elimination of 14C GPG-NH2 in rats", "experimental": "Further, the in vivo uptake of small peptides was analyzed in rats. Rats were fed ^14C GPG-NH2 and, after various time points, blood, urine, and tissue samples were collected from the animals. Samples of rat urine taken eight hours after feeding and rat plasma taken 30 minutes, two hours, and eight hours after feeding were separated on a TLC plate, as shown in FIG. 7 (designated urine8, rp0.5, rp2, and rp^8, accordingly). All the tissues were kept in −20° C. after necropsy before any assay was performed. […] of the tissue samples were collected from three different locations of each organ analyzed and the organ tissue was subsequently dissolved in 250 μl of tissue solublizer (OptiSolv, LKB-Wallac) at 45° C. for four to six hours. The homogenized tissue solutions were decolorized by the addition of 50 μl of 30% H2O2 and 100 μl of isopropanol before 3 ml of 0.05M HCl acidified scintillation cocktail (Luma Gel, Lumac/3M) was added. The radioactivity was determined with a beta scintillation counter (LKB-Wallac 1218 Rack Beta). The free/unbound GPG-NH2 in the plasma was collected by precipitation with one part of plasma and two parts of ethanol followed by incubation at −70° C. for one hour and centrifugation at 20,000×g for 15 min at 4° C. Blood cell samples were diluted with PBS (in the ratio of 2 parts of blood cells to 1 part of PBS) before 10 μl of the mixture was sampled and analyzed as the tissue samples. Five to 20 μl of plasma and urine samples were directly mixed with 3 ml of Ready Safe (Beckman) fluid before quantification. The values are expressed in nCi.\nThe calculation of the maximum uptake was determined as follows. The total feeding was 800 μCi/kg rat body weight (160 μCi in total per animal). On the assumption that the GPG-NH2 and its metabolities were evenly distributed in the body, the GPG-NH2 present in tissues would be the average counts/g from different tissues from the total number of animals studied divided by the total number of animals and multiplied by the body weight and the factor 0.9. This factor is derived to omit the blood volume since an estimate of blood volume is roughly 10% of the average body weight. For example (from the data of animals 1-5), if the total body weight for five rats was […] and the radioactivity detected from various tissues was (35+466+495+366+331) or 1,693 nCi and the radioactivity detected from blood was (93+130) or 223 nCi and the radioactivity detected in urine was 4, 015 nCi, the maximal intake of the small peptide can be calculated as: […]\nIn FIG. 9, the distribution of radioactivity between blood cells, plasma protein bound, as well as, non protein bound (free) plasma radioactivity is shown. The elimination of radioactivity from the plasma fraction is depicted in FIG. 10. […] Protein bound radioactivity was assayed after precipitation with two parts of 99.5% ethanol. From the uptake and distribution data and the TLC data above, the minimal uptake of intact GPG-NH2 recovered from the plasma was calculated and, in one hour after feeding of the rats, at least 1% of fed GPG-NH2 could be recovered as protein free GPG-NH2 in the plasma."}, "[2]": {"assay": "stability in human plasma by thin layer chromatography", "assay_type": "in vitro ADME", "conditions": "37° C.; 30 minutes, two hours, eight hours", "experimental": "The stability of GPG-NH2 in human plasma was also assessed chemically by thin layer chromatography (TLC). (See FIG. 7). In this experiment, ^14C GPG-NH2 was incubated with human plasma at 37° C. for 30 minutes, two hours, or eight hours and then the proteins were separated by TLC and were visualized by exposure of the chromatograph to autoradiography film. As shown in FIG. 7 (lanes Hp0, Hp0.5, Hp2, and Hp8), a slight shift in mobility of the small peptide was observed. […] Mass-spectrometry analysis (electrospray analysis) of the TLC spots verified that all spots, including the spot with increased mobility, were GPG-NH2."}, "influenza": {"system": "influenza", "assay": "inhibition of influenza virus", "assay_type": "cell-based"}, "[3]": {"conditions": "rats fed 14C GPG-NH2 800 μCi/kg, sacrificed after 4 hours, avg of animals 1-5"}, "[4]": {"conditions": "rats fed 14C GPG-NH2 800 μCi/kg, sacrificed after 8 hours, avg of animals 6-10"}, "[5]": {"conditions": "rats fed 14C GPG-NH2 800 μCi/kg, sacrificed after 8 hours, individual animals 6-10"}},
  "note": "Values joined by “and” are separate entries in the source; they are usually repeats but may differ in a detail not shown here. Equal entries are not always repeated. Peptide text beside a SMILES is read from it.",
  "data": [
    {"smiles": "NCC(=O)N1CCC[C@H]1C(=O)NCC(N)=O", "note": "[GPG-NH2, glycyl-prolyl-glycine amide] (H-Gly-Pro-Gly-NH2)", "values": [
      {"measurement": "development of resistance in vitro", "setting": "HIV-1 strain HTLV-IIIB", "value": "without overt signs of development of resistance"},
      {"measurement": "radioactivity in urine (used for uptake calculation)", "setting": "[1]; animals 1-5, 4 hours", "value": "4,015 nCi"},
      {"measurement": "radioactivity present in blood (calculated)", "setting": "[1]; animals 1-5, 4 hours, body weight 207 g, factor 0.1", "value": "blood (93 + 130) * 207 * 0.1 = 4,642 nCi"},
      {"measurement": "radioactivity present in tissue (whole body, calculated)", "setting": "[1]; animals 1-5, 4 hours, body weight 207 g, factor 0.9", "value": "(35 + 466 + 495 + 366 + 331)/5 * 207 * 0.9 = 63,240 nCi"},
      {"measurement": "change of radioactivity in the urine", "setting": "[1]; between hours 4 and 8", "value": "double"},
      {"measurement": "portion of urine radioactivity that was intact GPG-NH2", "setting": "[1]; electrospray mass spectrometry of TLC spot", "value": "only a small portion"},
      {"measurement": "fed GPG-NH2 recovered as protein free GPG-NH2 in the plasma", "setting": "[1]; one hour after feeding of the rats", "value": "at least 1%"},
      {"measurement": "maximal uptake", "setting": "[1]; oral feeding 800 μCi/kg, animals 1-5, 4 hours", "value": "(63.24 + 4.642 + 4.015)/800 * 0.207 = 0.4342, or 43% maximal"},
      {"measurement": "radioactivity in Blood cells, avg", "setting": "[1]; [3]", "value": "93 nCi/ml or g tissue"},
      {"measurement": "radioactivity in Brain, avg", "setting": "[1]; [3]", "value": "35 nCi/ml or g tissue"},
      {"measurement": "radioactivity in Kidneys, avg", "setting": "[1]; [3]", "value": "466 nCi/ml or g tissue"},
      {"measurement": "radioactivity in Liver, avg", "setting": "[1]; [3]", "value": "495 nCi/ml or g tissue"},
      {"measurement": "radioactivity in Plasma, avg", "setting": "[1]; [3]", "value": "130 nCi/ml or g tissue"},
      {"measurement": "radioactivity in Spleen, avg", "setting": "[1]; [3]", "value": "366 nCi/ml or g tissue"},
      {"measurement": "radioactivity in Thymus, avg", "setting": "[1]; [3]", "value": "331 nCi/ml or g tissue"},
      {"measurement": "radioactivity in Total urine, avg", "setting": "[1]; [3]", "value": "4,015 nCi/ml or g tissue"},
      {"measurement": "radioactivity in Urine, avg", "setting": "[1]; [3]", "value": "5,660 nCi/ml or g tissue"},
      {"measurement": "radioactivity in Blood cells, avg", "setting": "[1]; [4]", "value": 78, "unit": "nCi"},
      {"measurement": "radioactivity in Brain, avg", "setting": "[1]; [4]", "value": 30, "unit": "nCi"},
      {"measurement": "radioactivity in Kidneys, avg", "setting": "[1]; [4]", "value": 415, "unit": "nCi"},
      {"measurement": "radioactivity in Liver, avg", "setting": "[1]; [4]", "value": 494, "unit": "nCi"},
      {"measurement": "radioactivity in Plasma, avg", "setting": "[1]; [4]", "value": 135, "unit": "nCi"},
      {"measurement": "radioactivity in Spleen, avg", "setting": "[1]; [4]", "value": 293, "unit": "nCi"},
      {"measurement": "radioactivity in Thymus, avg", "setting": "[1]; [4]", "value": 334, "unit": "nCi"},
      {"measurement": "radioactivity in Total urine, avg", "setting": "[1]; [4]", "value": "8,426 nCi"},
      {"measurement": "radioactivity in Urine, avg", "setting": "[1]; [4]", "value": "3,525 nCi"},
      {"measurement": "radioactivity in Blood cells", "setting": "[1]; [5]", "value": "51 nCi and 72 nCi and 87 nCi and 71 nCi and 108 nCi"},
      {"measurement": "radioactivity in Brain", "setting": "[1]; [5]", "value": "43 nCi and 27 nCi and 28 nCi and 25 nCi and 29 nCi"},
      {"measurement": "radioactivity in Kidneys", "setting": "[1]; [5]", "value": "255 nCi and 488 nCi and 461 nCi and 401 nCi and 468 nCi"},
      {"measurement": "radioactivity in Liver", "setting": "[1]; [5]", "value": "537 nCi and 419 nCi and 478 nCi and 458 nCi and 578 nCi"},
      {"measurement": "radioactivity in Plasma", "setting": "[1]; [5]", "value": "138 nCi and 123 nCi and 135 nCi and 129 nCi and 148 nCi"},
      {"measurement": "radioactivity in Spleen", "setting": "[1]; [5]", "value": "307 nCi and 281 nCi and 257 nCi and 336 nCi and 285 nCi"},
      {"measurement": "radioactivity in Thymus", "setting": "[1]; [5]", "value": "340 nCi and 350 nCi and 323 nCi and 349 nCi and 311 nCi"},
      {"measurement": "radioactivity in Total urine", "setting": "[1]; [5]", "value": "6,463 nCi and 6,653 nCi and 11,173 nCi and 10,227 nCi and 7,613 nCi"},
      {"measurement": "radioactivity in Urine", "setting": "[1]; [5]", "value": "2,992 nCi and 5,040 nCi and 3,121 nCi and 4,297 nCi and 2,175 nCi"},
      {"measurement": "relative distribution of retained/immobilized GPG-NH2 and its metabolites in sampled tissues", "setting": "[1]; rats, oral", "value": "highest in the liver followed by the kidney, followed by the spleen, followed by the thymus, followed by the brain"},
      {"measurement": "TLC mobility after incubation in human plasma", "setting": "[2]", "value": "no further change in mobility was observed at up to 8 hours"},
      {"measurement": "inhibition of influenza virus", "setting": "influenza", "value": "failed inhibit either influenza or polio viruses"}
    ]}
  ]
}
